Target: T1, human OX2R (Homo sapiens, UniProt O43614)
T1 construct: expressed in transfected cells
T1 sequence (O43614 1-444): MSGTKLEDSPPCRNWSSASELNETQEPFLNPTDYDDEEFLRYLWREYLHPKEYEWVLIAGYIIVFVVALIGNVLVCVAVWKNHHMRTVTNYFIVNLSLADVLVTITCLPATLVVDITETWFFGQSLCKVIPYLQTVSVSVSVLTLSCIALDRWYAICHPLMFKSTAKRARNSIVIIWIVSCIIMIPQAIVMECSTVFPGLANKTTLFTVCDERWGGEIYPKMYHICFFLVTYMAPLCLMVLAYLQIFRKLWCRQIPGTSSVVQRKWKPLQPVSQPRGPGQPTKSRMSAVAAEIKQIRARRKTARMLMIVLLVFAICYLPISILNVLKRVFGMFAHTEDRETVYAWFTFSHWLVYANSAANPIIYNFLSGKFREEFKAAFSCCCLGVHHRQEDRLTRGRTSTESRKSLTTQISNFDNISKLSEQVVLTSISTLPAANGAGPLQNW
Experiment: Measurement of OX2R agonist activity (intracellular calcium concentration change, Fluo4-AM, FDSS 7000)
Format: cell-based
Conditions: compound concentration 10 μM; human OX2R-expressing CHO-K1 cells; 1 μM human orexin A peptide = 100%, medium alone = 0%
Description: The following abbreviations in the description, the figures and the tables have the following meanings, respectively. • AZADOL (registered trademark): 2-Hydroxy-2-azaadamantane • Boc2O: di-tert-butyl dicarbonate • DIPEA: N,N-diisopropylethylamine • DCM: dichloromethane • DMAP: 4-dimethylaminopyridine • DMF: N,N-dimethylformamide • DMSO: dimethylsulfoxide • Deoxo-Fluor: bis(2-methoxyethyl)-aminosulfur trifluoride • HATU: O-(7-azabenzotriazol-1-yl)-N,N,N′,N′-tetramethyluronium hexafluorophosphate • LDA: lithium diisopropylamide • MeCN: acetonitrile • Me4tBuXPhos: 2-di-tert-butylphosphino-3,4,5,6-tetramethyl-2′,4′,6′-triisopropyl-1,1′-biphenyl • MTBE: methyl tert-butyl ether • NMP: N-methylpyrrolidone • PdCl2(PPh3)2: dichlorobis(triphenylphosphine)palladium(II) • Pd(dba)2: bis(dibenzylideneacetone)palladium(0) • Pd2(dba)3: tris(dibenzylideneacetone)dipalladium(0) • Pd(dppf)Cl2: [1,1′-bis(diphenylphosphino)ferrocene]dichloropalladium(II) • Pd(PPh3)4: tetrakis(triphenylphosphine)palladium(0) • TEA: triethylamine • TFA: trifluoroacetic acid • THF: tetrahydrofuran • Xphos: 2-dicyclohexylphosphino-2′,4′,6′-triisopropylbiphenyl • Xphos Pd G3: (2-dicyclohexylphosphino-2′,4′,6′-triisopropyl-1,1′-biphenyl)[2-(2′-amino-1,1′-biphenyl)]palladium(II) methanesulfonic acid salt • 10% Pd/C: Palladium 10% on Carbon (wetted with ca. 55% water) • APS: aminopropylated silica gel • ODS: octadecyl-silylated silica gel • Method A: column chromatography with an aminopropylated silica gel column followed by a silica gel column • Chiral preparative column chromatography: chiral preparative column chromatography using YMC CHIRALART Cellulose-SB • Ref. No.: Reference Example Number • Str.: structural formula • Ex. No.: Example Number • Phys. data: physical data • ^1H-NMR: hydrogen nuclear magnetic resonance spectrum • CDCl3: chloroform-d1 • MS: mass spectrometry (The measured values in the tables were measured by electrospray ionization or multiionization using electrospray ionization-atmospheric pressure chemical ionization.) • Act.: activation rate of test substance at a compound concentration of 10 μM calculated by setting the fluorescence intensity obtained when human orexin A peptide was added at a concentration of 1 μM as 100% and the fluorescence intensity obtained when the medium alone was added as 0% • CHO: Chinese hamster ovary • HEPES: 2-[4-(2-hydroxyethyl)-1-piperazinyl]ethanesulfonic acid
A human OX2R sequence (Accession No. NM_001526.4) was inserted into the multiple cloning site of pcDNA3.4 (Life Technologies Japan Ltd.) to clone a plasmid vector for human OX2R expression. The plasmid was introduced into CHO-K1 cells using Lipofectamine 2000 (Life Technologies Japan Ltd.). Two days later, the transgenic CHO-K1 cells were passaged into 175T flasks and cultured selectively for 6 days. As a selection medium, Ham's F-12 Nutrient Mix (Life Technologies Japan Ltd.), containing Geneticin (registered trademark) (Life Technologies Japan Ltd.) at a final concentration of 1 mg/mL and inactivated fetal bovine serum (Biowest) at a final concentration of 10%, was used. After the selective culture, the cells were reseeded into 96-well plates, and a human OX2R-expressing cell line was obtained by limiting dilution.
The agonist effects of test substances on human OX2R were evaluated using the intracellular calcium concentration-change upon stimulation as an indicator. A day before measurement of the intracellular calcium concentrations, human OX2R-expressing cells suspended in a medium were seeded into 384-well plates at 5×10^3 cells/50 μL/well and cultured overnight in an incubator set at 37° C. and 5% CO2. After incubation, the medium was removed and replaced with 20 μL of a loading buffer. […]

Row | Compound | Act. (%): activation rate of test substance [%]
1 | CCNC(=O)[C@@]1(Cc2cccc(-c3ccccc3)c2)CC[C@H](NS(C)(=O)=O)C1 (relative stereo) [Example 1, (1R*,3S*)-1-([1,1′-Biphenyl]-3-ylmethyl)-N-ethyl-3-(methylsulfonamido)cyclopentane-1-carboxamide] | 50
2 | CON(C)C(=O)[C@@]1(Cc2cccc(-c3ccccc3)c2)CC[C@H](NS(C)(=O)=O)C1 (relative stereo) [Example 2, (1R*,3S*)-1-([1,1′-Biphenyl]-3-ylmethyl)-N-methoxy-N-methyl-3-(methylsulfonamido)cyclopentane-1-carboxamide] | 84
3 | CON(C)C(=O)[C@@]1(Cc2ccc(F)c(-c3ccccc3F)c2)CC[C@H](NS(C)(=O)=O)C1 (relative stereo) [Example 3, (1R*,3S*)-1-((2′,6-Difluoro-[1,1′-biphenyl]-3-yl)methyl)-N-methoxy-N-methyl-3-(methylsulfonamido)cyclopentane-1-carboxamide] | 93
4 | CON(C)C(=O)[C@@]1(Cc2ccc(F)c(-c3ccc(F)cc3)c2)CC[C@H](NS(C)(=O)=O)C1 (relative stereo) [Example 4] | 82
5 | CON(C)C(=O)[C@@]1(Cc2ccc(F)c(-c3cc(F)cc(F)c3)c2)CC[C@H](NS(C)(=O)=O)C1 (relative stereo) [Example 5] | 73
6 | CNS(=O)(=O)N[C@H]1CC[C@](Cc2cccc(-c3ccccc3)c2)(C(=O)N(C)OC)C1 (relative stereo) [Example 6, (1R*,3S*)-1-([1,1′-Biphenyl]-3-ylmethyl)-N-methoxy-N-methyl-3-((N-methylsulfamoyl)amino)cyclopentane-1-carboxamide] | 92
7 | CS(=O)(=O)N[C@H]1CC[C@](Cc2cccc(-c3ccccc3)c2)(C(=O)N2CCCO2)C1 (relative stereo) [Example 7, N-((1S*,3R*)-3-([1,1′-Biphenyl]-3-ylmethyl)-3-(isoxazolidine-2-carbonyl)cyclopentyl)methanesulfonamide] | 70
8 | C[C@H]1CCCN1C(=O)[C@@]1(Cc2cccc(-c3ccccc3)c2)CC[C@H](NS(C)(=O)=O)C1 (relative stereo) [Example 8] | 75
9 | C[C@@H]1CCCN1C(=O)[C@@]1(Cc2cccc(-c3ccccc3)c2)CC[C@H](NS(C)(=O)=O)C1 (relative stereo) [Example 9] | 58
10 | CON(C)C(=O)[C@@]1(Cc2cccc(-c3ccccc3C#N)c2)CC[C@H](NS(C)(=O)=O)C1 (relative stereo) [Example 10, (1R*,3S*)-1-((2′-Cyano-[1,1′-biphenyl]-3-yl)methyl)-N-methoxy-N-methyl-3-(methylsulfonamido)cyclopentane-1-carboxamide] | 41
11 | CON(C)C(=O)[C@@]1(Cc2cccc(-c3ccccc3O)c2)CC[C@H](NS(C)(=O)=O)C1 (relative stereo) [Example 11] | 71
12 | CON(C)C(=O)[C@@]1(Cc2cccc(-c3ccc(F)cn3)c2)CC[C@H](NS(C)(=O)=O)C1 (relative stereo) [Example 12, (1R*,3S*)-1-(3-(5-Fluoropyridin-2-yl)benzyl)-N-methoxy-N-methyl-3-(methylsulfonamido)cyclopentane-1-carboxamide] | 86
13 | CON(C)C(=O)[C@@]1(Cc2cccc(-c3nc(C)co3)c2)CC[C@H](NS(C)(=O)=O)C1 (relative stereo) [Example 13] | 90
14 | CON(C)C(=O)[C@@]1(Cc2cccc(-c3ccco3)c2)CC[C@H](NS(C)(=O)=O)C1 (relative stereo) [Example 14] | 93
15 | CON(C)C(=O)[C@@]1(Cc2cccc(-c3ncc(Cl)cn3)c2)CC[C@H](NS(C)(=O)=O)C1 (relative stereo) [Example 15, (1R*,3S*)-1-(3-(5-Chloropyrimidin-2-yl)benzyl)-N-methoxy-N-methyl-3-(methylsulfonamido)cyclopentane-1-carboxamide] | 86
16 | CON(C)C(=O)[C@@]1(Cc2cccc(-c3cscn3)c2)CC[C@H](NS(C)(=O)=O)C1 (relative stereo) [Example 16] | 91
17 | CON(C)C(=O)[C@@]1(Cc2cccc(-c3ncc(F)cn3)c2)CC[C@H](NS(C)(=O)=O)C1 (relative stereo) [Example 17] | 99
18 | CON(C)C(=O)[C@@]1(Cc2cccc(-c3ncc(C)cn3)c2)CC[C@H](NS(C)(=O)=O)C1 (relative stereo) [Example 18] | 87
19 | CON(C)C(=O)[C@@]1(Cc2cccc(-c3ncc(C(F)(F)F)cn3)c2)CC[C@H](NS(C)(=O)=O)C1 (relative stereo) [Example 19] | 45
20 | COc1cnc(-c2cccc(C[C@]3(C(=O)N(C)OC)CC[C@H](NS(C)(=O)=O)C3)c2)nc1 (relative stereo) [Example 20] | 75
21 | CON(C)C(=O)[C@@]1(Cc2cccc(-c3ncc(N(C)C)cn3)c2)CC[C@H](NS(C)(=O)=O)C1 (relative stereo) [Example 21, (1R*,3S*)-1-(3-(5-(Dimethylamino)pyrimidin-2-yl)benzyl)-N-methoxy-N-methyl-3-(methylsulfonamido)cyclopentane-1-carboxamide] | 48
22 | CON(C)C(=O)[C@@]1(Cc2ccc(C)c(-c3ncc(F)cn3)c2)CC[C@H](NS(C)(=O)=O)C1 (relative stereo) [Example 22] | 87
23 | CON(C)C(=O)[C@@]1(Cc2ccc(F)c(-c3ncc(Cl)cn3)c2)CC[C@H](NS(C)(=O)=O)C1 (relative stereo) [Example 23] | 83
24 | CON(C)C(=O)[C@@]1(Cc2ccc(F)c(-c3ncc(C)cn3)c2)CC[C@H](NS(C)(=O)=O)C1 (relative stereo) [Example 24] | 83
25 | CON(C)C(=O)[C@@]1(Cc2ccc(C(F)(F)F)c(-c3ncc(F)cn3)c2)CC[C@H](NS(C)(=O)=O)C1 (relative stereo) [Example 25] | 63
26 | CON(C)C(=O)[C@@]1(Cc2cc(-c3ncccn3)ccc2F)CC[C@H](NS(C)(=O)=O)C1 (relative stereo) [Example 26] | 99

Source: US20260124201A1, “CYCLOPENTANE COMPOUND” (Kissei Pharmaceutical Co., Ltd., priority 2022, published 2026)
